Laboratory results as given in patent publication US4159338A, “Antiinflammatory-4,5-dicyclic-2-(substituted thio)-imidazoles and their corresponding sulfoxides and sulfones” (E. I. Du Pont de Nemours and Company, priority 1978, dated 1979).
Where two headings read alike, the source gives them in different places.

Columns and labels:
[1] = system: adjuvant-induced arthritis in rats; experiment: Established Adjuvant-Induced Arthritis in Rats; format: in vivo, Charles River Lewis male rats; details: for ED50: Rattus norvegicus, read-out: A. A. ED50%
[2] = system: phenylquinone-induced writhing in mice; experiment: Phenylquinone Writhing Test; format: in vivo, female white mice; details: Mus musculus, 0.5 h, oral, at 1/2 hour
Description: A standard procedure for detecting and comparing the analgesic activity of compounds in this series for which there is good correlation with human efficacy is the standard phenylquinone writhing test modified from Siegmund, et al., Proc. Soc. Exp. Biol. Med. 95, 729 (1957). A test compound suspended in 1% methylcellulose was given orally to fasted (17-21 hours) female white mice, 5-20 animals per double blind test. Aqueous (0.01% phenyl-p-benzoquinone) phenylquinone was injected intraperitoneally at 24 minutes later using 0.20 ml per mouse. […] The effective analgesic dose for 50% of the mice (ED50) was calculated by the moving average method of Thompson, W. R., Bact. Rev. 11, 115-145 (1947); also time of peak action was determined for many of the compounds.

[3] = oral, 7 daily doses, established adjuvant arthritis rats, determined as % paw volume reduction from control
[4] = oral, 7 daily doses, established adjuvant arthritis rats

| SMILES | ED50 [1, 3] [mg/kg] | ED50 [2] [mg/kg] | also measured |
| --- | --- | --- | --- |
| CCCCC1C(=O)N(c2ccccc2)N(c2ccccc2)C1=O [Phenylbutazone, reference compound] | 10 | – | – |
| FC(F)C(F)(F)Sc1nc(-c2ccco2)c(-c2ccco2)[nH]1 [Example 10, 4,5-bis-(2-Furyl)-2-(1,1,2,2-tetrafluoroethylthio)-1H-imidazole] | – | – | % paw volume reduction from control at 50 mg/kg [1, 4]: 34% |
| COc1ccc(-c2nc(SC(F)(F)C(F)F)[nH]c2-c2cccs2)cc1 [Example 8, 4-(4-Methoxyphenyl)-2-(1,1,2,2-tetrafluoroethylthio)-5-(2-thienyl)-1H-imidazole] | 30 | 45 | – |
| CC(C)Cc1ccc(C(C)C(=O)O)cc1 (stereo not shown) [Ibuprofen, reference compound] | 100 | – | – |
| CC(=O)Oc1ccccc1C(=O)O [Aspirin, reference compound] | – | – | ED50 ([1]; po): 305 mg/kg |
| O=S(=O)(c1nc(-c2ccc(F)cc2)c(-c2cccs2)[nH]1)C(F)(F)C(F)F [Example 3, 4-(4-Fluorophenyl)-2-(1,1,2,2-tetrafluoroethylsulfonyl)-5-(2-thienyl)-1H-imidazole] | 0.1 | 2.1 | – |
| COc1ccc(-c2nc(S(=O)(=O)C(F)(F)C(F)F)[nH]c2-c2cccs2)cc1 [Example 9, 4-(4-Methoxyphenyl)-2-(1,1,2,2-tetrafluoroethylsulfonyl)-5-(2-thienyl)-1H-imidazole] | 5 | 1.67 | – |
| O=S(=O)(c1nc(-c2cccs2)c(-c2cccs2)[nH]1)C(F)(F)C(F)F [Example 5, 2-(1,1,2,2-Tetrafluoroethylsulfonyl)-4,5-bis-(2-thienyl)-1H-imidazole] | 2.2 | < 130 | – |
| FC(F)C(F)(F)Sc1nc(-c2ccc(Cl)c(Cl)c2)c(-c2cccs2)[nH]1 [Example 6, 4-(3,4-Dichlorophenyl)-2-(1,1,2,2-tetrafluoroethylthio)-5-(2-thienyl)-1H-imidazole] | 50 | – | – |
| Fc1ccc(-c2nc(SC(F)(F)C(F)F)[nH]c2-c2cccs2)cc1 [Example 2, 4-(4-Fluorophenyl)-2-(1,1,2,2-tetrafluoroethylthio)-5-(2-thienyl)-1H-imidazole] | 1.3 | – | – |
| FC(F)C(F)(F)Sc1nc(-c2ccccc2)c(-c2cccnc2)[nH]1 [Example 11, 4-Phenyl-5-(3-pyridyl)-2-(1,1,2,2-tetrafluoroethylthio)-1H-imidazole] | < 25 | – | – |
| FC(F)C(F)(F)Sc1nc(-c2ccc(Cl)cc2)c(-c2cccs2)[nH]1 [Example 4, 4-(4-Chlorophenyl)-2-(1,1,2,2-tetrafluoroethylthio)-5-(2-thienyl)-1H-imidazole] | 12 | – | – |
| COc1ccc2c(c1)c(CC(=O)O)c(C)n2C(=O)c1ccc(Cl)cc1 [Indomethacin, reference compound] | – | – | ED50 ([1]; po): 0.3 mg/kg |
| FC(F)C(F)(F)Sc1nc(-c2cccs2)c(-c2cccs2)[nH]1 [Example 1, 2-[(1,1,2,2-Tetrafluoroethyl)thio]-4,5-bis-(2-thienyl)-1H-imidazole] | – | 4.6 | % paw volume reduction from control at 50 mg/kg [1, 4]: 32% |
